ChEMBL document CHEMBL1127941, “Norleucine as a replacement for methionine in phosphatase-resistant linear and cyclic peptides which bind to p85 SH2 domains” (Bioorg Med Chem Lett, 1994)
Numbered stars: 1 amine (or outer) side, 2 acyl side, 3 side chain; on linkers, the order of the positions; unused ones are H or OH. Square brackets hold non-standard residues; d marks the D form. Peptide text beside a SMILES is read from it. X2 = O=C([C@@H](Cc1ccc(C(F)(F)OP(=O)(O)O)cc1)N[*:1])[*:2]; X1 = O=C([C@H](Cc1ccc(C(F)(F)OP(=O)(O)O)cc1)N[*:1])[*:2]; Pmp = N[C@@H](Cc1ccc(CP(=O)(O)O)cc1)C(=O)O; pY = N[C@@H](Cc1ccc(OP(=O)(O)O)cc1)C(=O)O; Nle = CCCC[C@H](N)C(=O)O

Experiment: Binding affinity to Phosphatidylinositol 3-kinase C-terminal p85 SH2 domain

**Q.** Which ID50 does the source give for CCCC[C@H](NC(=O)[C@@H]1CCCN1C(=O)[C@@H](NC(=O)C(Cc1ccc(CP(=O)(O)O)cc1)NC(=O)CN)C(C)C)C(=O)N[C@@H](CC(C)C)C(=O)O (single isomer, unassigned) here?
**A.** The ID50 was 109 µM.

**Q.** For CSCC[C@H](NC(=O)[C@@H]1CCCN1C(=O)[C@@H](NC(=O)C(Cc1ccc(CP(=O)(O)O)cc1)NC(=O)CN)C(C)C)C(=O)N[C@@H](CC(C)C)C(=O)O (single isomer, unassigned), which ID50 is on record?
**A.** Its ID50 is 29.4 µM.

**Q.** Which ID50 does the source give for CCCC[C@@H]1NC(=O)[C@H]2CCCN2C(=O)[C@H](C(C)C)NC(=O)[C@@H](Cc2ccc(OP(=O)(O)O)cc2)NC(=O)CNC(=O)[C@@H](CC(C)C)NC1=O here?
**A.** The ID50 was 15.6 µM.

**Q.** Which ID50 does the source give for CCCC[C@H](NC(=O)[C@@H]1CCCN1C(=O)[C@@H](NC(=O)[C@H](Cc1ccc(CP(=O)(O)O)cc1)NC(=O)CN)C(C)C)C(=O)N[C@@H](CC(C)C)C(=O)O (H-G[Pmp]VP[Nle]L-OH) here?
**A.** Its ID50 is 1.6 µM.

**Q.** With CSCC[C@@H]1NC(=O)[C@@H]2CCCN2C(=O)[C@H](C(C)C)NC(=O)[C@H](Cc2ccc(C(F)(F)OP(=O)(O)O)cc2)NC(=O)CNC(=O)[C@H](CC(C)C)NC1=O (cyclo(G[X1]VPML)) as the compound, how does the ID50 read?
**A.** Its ID50 is 2.24 µM.

**Q.** For CSCC[C@H](NC(=O)[C@@H]1CCCN1C(=O)[C@@H](NC(=O)[C@H](Cc1ccc(OP(=O)(O)O)cc1)NC(=O)CN)C(C)C)C(=O)N[C@@H](CC(C)C)C(=O)O (H-G[pY]VPML-OH), which ID50 is on record?
**A.** Its ID50 is 0.17 µM.

**Q.** For CSCC[C@@H]1NC(=O)[C@H]2CCCN2C(=O)[C@H](C(C)C)NC(=O)[C@@H](Cc2ccc(OP(=O)(O)O)cc2)NC(=O)CNC(=O)[C@@H](CC(C)C)NC1=O, which ID50 is on record?
**A.** Its ID50 is 1.01 µM.

**Q.** With CSCC[C@@H]1NC(=O)[C@H]2CCCN2C(=O)[C@H](C(C)C)NC(=O)[C@@H](Cc2ccc(COP(=O)(O)O)cc2)NC(=O)CNC(=O)[C@@H](CC(C)C)NC1=O as the compound, how does the ID50 read?
**A.** Its ID50 is 5.2 µM.

**Q.** For CSCC[C@H](NC(=O)[C@@H]1CCCN1C(=O)[C@@H](NC(=O)[C@H](Cc1ccc(CP(=O)(O)O)cc1)NC(=O)CN)C(C)C)C(=O)N[C@@H](CC(C)C)C(=O)O (H-G[Pmp]VPML-OH), which ID50 is on record?
**A.** Its ID50 is 0.98 µM.

**Q.** For CCCC[C@@H]1NC(=O)[C@@H]2CCCN2C(=O)[C@H](C(C)C)NC(=O)[C@H](Cc2ccc(C(F)(F)OP(=O)(O)O)cc2)NC(=O)CNC(=O)[C@H](CC(C)C)NC1=O (cyclo(G[X1]VP[Nle]L)), which ID50 is on record?
**A.** The ID50 was 8.9 µM.

**Q.** For CSCC[C@@H]1NC(=O)[C@@H]2CCCN2C(=O)[C@H](C(C)C)NC(=O)[C@@H](Cc2ccc(C(F)(F)OP(=O)(O)O)cc2)NC(=O)CNC(=O)[C@H](CC(C)C)NC1=O (cyclo(G[X2]VPML)), which ID50 is on record?
**A.** Its ID50 is 32.4 µM.

**Q.** Which ID50 does the source give for CCCC[C@@H]1NC(=O)[C@@H]2CCCN2C(=O)[C@H](C(C)C)NC(=O)[C@@H](Cc2ccc(C(F)(F)OP(=O)(O)O)cc2)NC(=O)CNC(=O)[C@H](CC(C)C)NC1=O (cyclo(G[X2]VP[Nle]L)) here?
**A.** Its ID50 is 59.1 µM.
